Key:
IKKγ mono-ubiquitination = IKKγ mono-ubiquitination after irradiation, IKKγ immunoprecipitation, HEK293 cells; type: cell-based, human
Procedure: FIG. 11: (A) HEK293 cells were pre-incubated with DMSO, MW01 or ATM inhibitor KU55933 and irradiated. Lysates were subjected to SDS-PAGE/WB. The specific IKKγ S85 band (lower band) was identified by induction following irradiation and by sensitivity to ATMi and λ-phosphatase (λ-PP) treatment. The asterisk indicates a non-specific band that was neither inducible nor ATMi sensitive. (B) Experiment was done as shown in (A) using MEF cells. (C) HEK293 cells were pre-treated with DMSO or MW01, irradiated and lysed. Lysates were used to immunoprecipitate IKKγ using an IKKγ antibody.
Following cell lysis the protein concentration of samples was determined. For input controls, 40 μg lysate were mixed with 6×SDS-buffer and denatured by heating to 95° C. for 4 min. Approximately 1500 μg protein lysate was used for pulldown and samples volumes were equalled with lysis buffer. Lysates were precleared with 30 μl sepharose A or sepharose G beads (depending on the antibody type used for pulldown) for 30 min, and centrifuged for 5 min at 1,500×g. The supernatant was transferred to a new reaction tube. Primary antibody (2-2.5 μg) was added to the cleared lysate for immunoprecipitation overnight while rotating at 4° C. The next day 30 μl sepharose beads per sample were used for immobilisation of antibodies. […]

HT1080 cells = assay: Annexin V staining, flow cytometry, HT1080 cells; type: cell-based; details: HT1080, 10 Gy
Procedure: (§1) FIG. 16: (A) U2OS cells were pre-treated with DMSO or MW01 and irradiated. Cells were lysed 8 h post γ-IR and were used for western blotting and immunochemical staining. (B) HEK293 cells were pre-treated with DMSO or MW01 and irradiated. After 48 h cells were fixed and stained with crystal violet. Dissolved crystal violet was used for absorbance measurement in a visible light spectrophotometer at a wavelength of 595 nm. (C) HEK293 cells were pre-treated with DMSO or MW01 and irradiated. The percentage of viable cells within the population was calculated by exclusion of annexin V and propidium-iodide positive cells measured by flow cytometry. (D) MEF cells were pre-treated with DMSO or MW01 and irradiated. Cells were used for annexin V staining 24 h and 48 after γ-IR. Percentage of annexin V positive cell population was analysed using a flow cytometer. (E) Experiment done as shown in (D) but with HT1080 cells processed 8 h after irradiation. Statistical significance was calculated using students t-test.
Cells were washed with ice-cold PBS and detached from growing dishes using Trypsin/EDTA solution. Detached cells were centrifuged at 300×g for 5 min. […]
In addition, the sensitising effect of NF-κB inhibition was tested in HT1080 cells. After pre-treatment with DMSO or MW01, cells were irradiated with a dose of 10 Gy and analysed by annexin V staining.

[1] = test system: NF-κB DNA binding activity; assay: NF-κB DNA binding activity (EMSA) after γ-IR or etoposide, U2OS cells; type: cell-based, human
Procedure: (§2) FIG. 3: (A) U2OS cells were pre-treated with increasing concentrations of MW01 in duplicates in a 384 well plate. Then, cells were treated with etoposide, fixed and subjected to IF of p65. Spatial measurement of p65 cytosolic and nuclear localisation was used for calculation of p65 translocation rates. (B) U2OS cells were pre-treated with DMSO, MW01 and irradiated with γ-IR. After 90 min cells were lysed and subjected to SDS-PAGE/WB and EMSA. (C) Cells were pre-treated with different concentrations of MW01 as indicated, treated with γ-IR (C) or etoposide (D) and subjected to WB or EMSA, respectively. LDH in (C) represents the loading control.
Nuclear or whole cell lysates were incubated with a ^32P-labeled NF-κB DNA-[…]
For electrophoresis, a current of 26 mA was applied for 2 h. After drying the gel onto a Whatman paper, signals were visualised on an autoradiography film (GE Healthcare) after overnight incubation at −80° C. in a radiography cassette. All work using radioactive substances were done at a monitored work space suitable for radioactive work.

HEK293 cells = assay: Percentage of viable cells, annexin V / propidium-iodide exclusion, flow cytometry, HEK293 cells; type: cell-based, human
Procedure: as §1
Cells were washed with ice-cold PBS and detached from growing dishes using Trypsin/EDTA solution. Detached cells were centrifuged at 300×g for 5 min. Detection of early apoptotic cells was performed by staining with annexin V-FITC antibody according to manufacturer's instructions (eBioscience Annexin V-FITC Apoptosis detection Kit). […]

p65 S536 phosphorylation = p65 S536 phosphorylation after γ-IR or etoposide, SDS-PAGE/WB, U2OS cells; type: cell-based, human; details: γ-IR
Procedure: as §2
FIG. 14: (A) U2OS cells were pre-treated with different concentrations of olaparib prior to co-treatment with etoposide. Whole cell lysis was performed after 90 min and cleared lysates were used for WB with indicated antibodies. (B) U2OS cells were pre-treated with DMSO, olaparib or the ATM inhibitor Ku55933 and co-treated with etoposide. Cells were harvested after 45 min and subjected to SDS-PAGE/WB. Membranes were stained with the indicated antibodies. The experiment of (B) was performed simultaneously to the experiments of (A) and (E) to control functionality of olaparib in inhibiting PAR chain formation. (C) Densitometrical analyses of (A) and two further independent experiments done as shown in (A). (D) U2OS cells were pre-treated with the substances as indicated prior to irradiation. After 90 min mRNA was isolated, transcribed into cDNA and was used for expression analyses of the indicated genes using quantitative real-time PCR (qRT-PCR). (E) HepG2 cells were pre-treated with the PARP inhibitors olaparib, 3-AB and EB-47 prior to γ-irradiation. […]
After transfer of proteins on PVDF membranes unspecific binding of antibodies was blocked by incubation of membranes in 5% skim milk powder in TBST buffer (or 3% BSA in TBST for phosphorylation-specific antibodies) for 1 h at RT. […] After three times of washing with TBST and once with PBS for 5 min, chemiluminescent photon emission was detected using a CCD camera system (Fusion Solo). […]

COc1ccc2c(c1OC)c(=O)n1c3ccc(O)cc3c3ccnc2c31 [MW01, 12-hydroxy-6,7-dimethoxy-8H-benzo[c]indolo[3,2,1-ij][1,5]naphthyridin-8-one]
IKKγ mono-ubiquitination (IKKγ mono-ubiquitination): abolishment | population of early apoptotic cells (HT1080 cells): roughly doubled | annexin V staining compared to the irradiated control (HT1080 cells; 8 h after irradiation): significant increase | etoposide-induced NF-κB DNA binding activity ([1]; etoposide): inhibited by MW01 pre-treatment in a concentration dependent manner | γ-IR-induced NF-κB DNA binding activity ([1]; γ-IR, 90 min, U2OS): inhibited the γ-IR-induced NF-κB DNA binding activity | less viable cells after irradiation (HEK293 cells; HEK293, after irradiation): ~17% | percentage of viable cells compared to the DMSO control (HEK293 cells; HEK293, non-irradiated): slightly reduced | p65 S536 phosphorylation following γ-IR (p65 S536 phosphorylation): concentration dependent inhibition of p65 S536 phosphorylation
